We go through 4 molecules from paper PMC10035370, “Targeting Tumor Angiogenesis with the Selective VEGFR-3 Inhibitor EVT801 in Combination with Cancer Immunotherapy” (Cancer Research Communications, 2022).

Series [1] concerns NCI-H1703 tumor xenografts. Put plainly: NCI-H1703 subcutaneous xenograft tumor mouse model. The series is classed as in vivo, mice. The conditions noted are these: 30 mg/kg twice per day. Here is the method: A total number of 40 homozygous NOD.CB17 Prkdc^scid/NCrHsd mice were used for the xenograft tumor model. On the day of implantation, NCI-H1703 cells were harvested and suspended at a concentration of 1 × 10^8 cells per mL in an equal mix of Cultrex:RPMI without supplements. A volume of 100 μL was injected into the right hind flank of each animal. Tumor volumes were monitored until mean tumor volume reached 150 mm^3. Then, mice were stratified into four treatment groups of each 10 mice and orally dosed twice per day with either EVT801 30 mg/kg and EVT801 vehicle [Soluplus (BASF)/water/hydroxypropylcellulose SL (Nisso America)], or 30 mk/kg pazopanib and pazopanib vehicle (0.5% Hydroxypropyl methylcellulose trimellitate (HPMCT) + 0.1% Tween-80). A period of 8 hours was observed between the first and second daily dose.

In another series the test system is RT-HAM-001 tumors. Nature of the series: RT-001-HAM subcutaneous patient-derived xenograft tumor mouse model. In kind it is in vivo, mice. The conditions noted are these: 30 mg/kg twice per day, 7-day treatment. Here is the method: Patient-derived tumors of the same passage were transplanted subcutaneously outbred athymic (nu/nu) female HSD mice. When tumor volume reached 726 to 1,437 mm^3, 4 donor mice were sacrificed by cervical dislocation, and tumors were aseptically excised and dissected. After removing necrotic areas, tumor fragments of approximately 20 mm^3 were transferred to culture medium before grafting. A total of 108 mice were anesthetized with 100 mg/kg ketamine hydrochloride (Virbac) and 10 mg/kg xylazine (Bayer). Then, a tumor fragment was placed in the subcutaneous tissue of an incision at the level of the interscapular region as described previously ([30]). All mice from the same experiment were implanted on the same day. A total of 54 mice with RT-001-HAM established growing tumor (P6.0.0/0) between 62.5 and 196 mm^3 were allocated according to tumor volume, ensuring homogenous median and mean tumor volume in each treatment arm. Treatments with 5 mL/kg vehicle, 30 mg/kg EVT801, or 30 mg/kg pazopanib started 15 days after tumor implantation and continued twice per day until termination 7 days later. Tumor volumes were measured via a caliper three times a week during the treatment period. All animals were weighed at the same time as tumor size measurement. Plasma and fresh tumor samples were collected at different timepoints after final dose at day 7 from all mice.
In general terms: Xenograft models place foreign cells or tissue in a host animal.

For the next series, the system named is NCI-H1703 cells. Put plainly: NCI-H1703 viability (ATP reduction). In kind it is cell-based. The conditions noted are these: Homo sapiens, in vitro. The procedure:
NCI-H1703 were seeded in 96-well plates coated with 0.3 % gelatin (5 x 10^3 cells per well) and were incubated in RPMI 0.1 % FCS with VEGF-C (300 ng/mL) or VEGF-D (300 ng/mL) in the absence or presence of increasing doses of EVT801. After 5 days, viable cells were quantified with the cell Titer-glo luminescent cell viability assay (Promega) as previously described (1).

A further series concerns DEN-induced liver tumor. Put plainly: N-diethylnitrosamine-induced hepatocarcinoma mouse model. The series is classed as in vivo, mice. The conditions noted are these: 30 mg/kg daily for 2 months. The procedure:
After weighing, 38 male C3/H mice received a 10 mg/kg dose of N-diethylnitrosamine (DEN) intraperitoneally, whereas a group of 5 animals was kept without DEN injection as control group. After 12 months, mice that received DEN injection were randomized by weight in two groups of each 19 animals. The mice were dosed daily orally for 2 months either with EVT801 or vehicle. On the day of termination, mice treated with EVT801 received a last dose of 30 mg/kg to take blood and tumor samples for compound concentration determination. After incision of the peritoneal cavity, blood was taken from the vena cava. Following excision and weighing of the liver, the number of tumors per liver was counted. The tumor burden was calculated as the sum of individual tumor volumes for each mouse. No blood sampling was performed on control and vehicle groups. Plasma and tumor samples were stored at −20°C until analysis. Concentration of EVT801 was determined by LC/MS-MS.

Series [2] can be described thus: Blood pressure in telemetered rat model of hypertension. The conditions noted are these: single oral administration of 10, 30 or 100 mg/kg. In kind it is in vivo. The procedure:
Supplementary Figure 8. EVT801 and sorafenib show opposing effects on blood pressure in rats. (A) Monitoring of the blood pressure over 24 h after single oral administration of 100 mg/kg EVT801 or 500 mg/kg of EVT801, compared to animals treated with vehicle. (B) Monitoring of the blood pressure over 24 h after single oral administration of 10 mg/kg sorafenib, 30 mg/kg sorafenib or 100 mg/kg of sorafenib, compared to animals treated with vehicle.

Another series has as its system hLMVEC. Nature of the series: Growth factor-induced hLMVEC proliferation. In kind it is cell-based, human. The note with it: stimulation by the ligand. The procedure: hLMVEC were seeded in white cell culture-treated flat and clear bottom multi-well plates and incubated at 37 °C overnight, before compounds were added. After incubation for 72 h at 37 °C, plates were equilibrated to ambient temperature for 1 h, and CellTiterGlo reagent (Promega) was added. After approximately 1h, luminescence was measured using a luminometer. Curves were fitted via sigmoidal dose response curves, and IC50 values were determined.

A word on the IC50: it is the concentration needed to halve the response being measured. Read a low IC50 as greater potency in that assay.

Consider `Cc1ccc(Nc2nccc(N(C)c3ccc4c(C)n(C)nc4c3)n2)cc1S(N)(=O)=O` [pazopanib, reference compound], for which the “CD31 IHC, tumor vessels” value in series [1] is listed as “decreased the number of vessels while increasing the proportion of larger ones”. The “decrease of tumor weight compared with vehicle” value in series [1] (endpoint) is given as 56%. Moreover, the “T/C ratio, tumor growth” value in series [1] (oral, vs corresponding vehicle) is reported as 53%. Also, in the series with RT-HAM-001 tumors, the “T/C ratio, tumor volume” value is recorded as 77% and the “size of necrotic areas in tumors” value is “remained unaffected”. The “hypoxic areas (CAIX) in tumors” value with RT-HAM-001 tumors (not statistically significant) is on record as “showed opposing effects”. This molecule gave an IC50 in the series on NCI-H1703 cells of 90 nM.
In the case of `CNC(=O)c1cc(Oc2ccc(NC(=O)Nc3ccc(Cl)c(C(F)(F)F)c3)cc2)ccn1` [sorafenib, reference compound], in the series with DEN-induced liver tumor, the “T/C ratio, tumor growth” value was 32% and the liver weight result is “reduced liver weight”. Besides, the “effect on blood pressure” value in series [2] is listed as “showed the opposite effect”.

B1: VEGF-C: VEGFR-3 ligand (protein, UniProt P49767 112-227, looked up)
Vascular endothelial growth …: AHYNTEILKSIDNEWRKTQCMPREVCIDVGKEFGVATNTFFKPPCVSVYRCGGCCNSEGLQCMNTSTSYLSKTLFEITVPLSQGPKPVTISFANHTSCRCMSKLDVYRQVHSIIRR
As to B1, the “increase in hLMVEC proliferation” value in the series with hLMVEC was 50%.

B2: VEGF-D: VEGFR-3 ligand (protein, UniProt O43915 89-205, looked up)
Vascular endothelial growth …: FAATFYDIETLKVIDEEWQRTQCSPRETCVEVASELGKSTNTFFKPPCVNVFRCGGCCNEESLICMNTSTSYISKQLFEISVPLTSVPELVPVKVANHTGCKCLPTAPRHPYSIIRR
Regarding B2, the “increase in hLMVEC proliferation” value in the series on hLMVEC came out at 34%.
